Read-outs that look alike come from different tables or passages of the source.
Key:
pronase = assay: Proteolytic stability against pronase digestion (HPLC); assay type: in vitro ADME, Streptomyces griseus K-1; set-up: key to Pronase Degradation (pH 7.8) / Pronase Degradation (pH 9): +: Pronase stable; ++: Intermediate Pronase stability; +++: Pronase unstable; settings: for Pronase Degradation (pH 7.8): pH 7.8, 37° C.; for Pronase Degradation (pH 7.8) / Pronase Degradation (pH 9): 18 h, 400 μM compound; for Pronase Degradation (pH 9): pH 9.0, 37° C.
Procedure: Proteolytic stability of second and third generation compounds was assessed using pronase as previously described.^3 Pronase is a group of≧10 proteases isolated from Streptomyces griseus K-1. As such, proteolytic degradation was measured at two pH's, 7.8 and 9.0. Briefly, promise (1 unit) was added to the compound of interest (400 μM in 40 μL) in 1X Digestion Buffer (50 mM Tris-HCl, pH 7.8 or 9.0, and 10 mM CaCl2), and the reaction was incubated at 37° C. for 18 h. Reactions were quenched by addition of 4 μL of 25% acetic acid, and the products of the pronase digestion were analyzed by HPLC. A linear gradient of 0-100% methanol in H2O with 0.1% (v/v) TFA and a flow rate of 1 mL/min were employed.

r(CUG)12 = assay: SPR binding kinetics to r(CUG)12; settings: for koff (1): SD ≦±10%; for koff (1) / kon (1): two component fit for dimers, one component for H monomer and MBNL1
Procedure: The binding of 2H-K4NMe to various RNAs including r(CUG)12, r(CAG)12, r(AU)12 and r(GC)δ was studied by surface plasmon resonance (SPR) spectrometry. […] In summary, 2H-K4NMe is selective for r(CUG)12 by ˜30-100-fold over the other RNAs studied (Table 2). In general, it has a faster association rate (kon) and a slower dissociation rate (koff) when binding to r(CUG)12 compared to the other RNAs.
On rates, off rates and Kobs values were measured using a ForteBio OctetRed spectrophotometer and Streptavidin SA dip-and-read biosensors (ForteBio). Sensors were pre-equilibrated in 1X Kinetics Buffer (ForteBio) prior to beginning measurements. 5′-Biotinylated r(CUG)12 was folded by heating in 1X Kinetics Buffer at 60° C. for 5 min followed by slow cooling to room temperature on the bench top. Measurements were completed by incubating sensors sequentially in 200 μL of: 1X Kinetics Buffer, 540 nM 5′-biotinylated RNA, 1X Kinetics Buffer, compound of interest or MBNL1 (varying concentrations; seven 1:2 dilutions in 1X Kinetics Buffer), and finally 1X Kinetics Buffer. Data were fit using ForteBio's Data Analysis 7.0 software. MBNL1 and II (monomer) data were fit using a 1:1 model. This model fits one analyte in solution binding to one binding site on the surface. 2H-K4NMe and 2H-4 data were fit using a 2:1 heterogeneous ligand model. This model fits the binding of one analyte in solution to two different binding sites on the surface. Kinetic parameters are calculated for both interactions.

[1] = r(CUG)12, two component binding isotherm

Molecule | Pronase Degradation (pH 7.8) (pronase) | susceptibility to pronase digestion (pronase; pH 7.8 and pH 9.0 for 18 h) | Pronase Degradation (pH 9) (pronase) | koff (1) (r(CUG)12; r(CUG)12) | Kd (r(CUG)12; r(CUG)12, read-out: Kobs (1)) | koff (2) (r(CUG)12; [1]) | kon (2) (r(CUG)12; [1]) | kon (1) (r(CUG)12; r(CUG)12) | binding to r(CUG)12, fold weaker than 2H-K4NMe (r(CUG)12) | Kd (r(CUG)12; read-out: Kd for binding r(CUG)12)
C[C@@H](C(=O)N(C)[C@@H](C)C(=O)N(C)[C@@H](C)C(=O)NCCNC(=O)CCCOc1cccc(-c2nc3cc(-c4nc5cc(N6CCN(C)CC6)ccc5[nH]4)ccc3[nH]2)c1)N(C)C(=O)CCCOc1cccc(-c2nc3ccc(-c4nc5cc(N6CCN(C)CC6)ccc5[nH]4)cc3[nH]2)c1 [Compound 2H-3NMe] | +++ | completely degraded | +++ | – | – | – | – | – | – | –
CCCN(C(=O)CCCOc1cccc(-c2nc3ccc(-c4nc5cc(N6CCN(C)CC6)ccc5[nH]4)cc3[nH]2)c1)[C@H](C)C(=O)N(CCC)[C@H](C)C(=O)N(CCC)[C@H](C)C(=O)NCCNC(=O)CCCOc1cccc(-c2nc3cc(-c4nc5cc(N6CCN(C)CC6)ccc5[nH]4)ccc3[nH]2)c1 [Compound 2H-3NPr] | ++ | – | ++ | – | – | – | – | – | – | –
C[C@@H](C(=O)N(C)[C@@H](C)C(=O)N(C)[C@@H](C)C(=O)N(C)[C@@H](C)C(=O)N(CCCCN(C)C(=O)CCCOc1cccc(-c2nc3ccc(-c4nc5cc(N6CCN(C)CC6)ccc5[nH]4)cc3[nH]2)c1)CC(N)=O)N(C)C(=O)CCCOc1cccc(-c2nc3ccc(-c4nc5cc(N6CCN(C)CC6)ccc5[nH]4)cc3[nH]2)c1 [Compound 2H-K4NMeS] | – | – | – | 0.06 s⁻¹ | 2200 nM | 0.042 s⁻¹ | 144000 M⁻¹ s⁻¹ | 27300 M⁻¹ s⁻¹ | – | –
CN1CCN(c2ccc3[nH]c(-c4ccc5[nH]c(-c6cccc(OCCCC(=O)O)c6)nc5c4)nc3c2)CC1 [H monomer, reference compound] | – | – | – | 0.0369 s⁻¹ | 2100 nM | – | – | 17600 M⁻¹ s⁻¹ | 15 fold | 2000 nM
MBNL1: muscleblind-like 1 protein, pre-mRNA splicing regulator that binds r(CUG)^exp (protein, UniProt Q9NR56 1-388, looked up) Muscleblind-like protein 1: MAVSVTPIRDTKWLTLEVCREFQRGTCSRPDTECKFAHPSKSCQVENGRVIACFDSLKGRCSRENCKYLHPPPHLKTQLEINGRNNLIQQKNMAMLAQQMQLANAMMPGAPLQPVPMFSVAPSLATNASAAAFNPYLGPVSPSLVPAEILPTAPMLVTGNPGVPVPAAAAAAAQKLMRTDRLEVCREYQRGNCNRGENDCRFAHPADSTMIDTNDNTVTVCMDYIKGRCSREKCKYFHPPAHLQAKIKAAQYQVNQAAAAQAAATAAAMTQSAVKSLKRPLEATFDLGIPQAVLPPLPKRPALEKTNGATAVFNTGIFQYQQALANMQLQQHTAFLPPVPMVHGATPATVSAATTSATSVPFAATATANQIPIISAEHLTSHKYVTQM | – | – | – | 0.00203 s⁻¹ | 619 nM | – | – | 3280 M⁻¹ s⁻¹ | – | –
